Values joined by “and” are separate entries in the source; they are usually repeats but may differ in a detail not shown here. Identical values can stand only once. “Also recorded” adds a separate entry of the source.
Experiments:
[1] = system: R495X FUS; assay: Read-through of FUS R495X nonsense mutation in transfected N2A cells (FLAG Western blot); format: cell-based; conditions: three concentrations, 24 hours
Description: Examination of G418 on the R495X mutation of FUS responsible for familial ALS. WT or R495X FUS was tagged with FLAG at the N-terminus. N2A cells were transfected with WT or R495X FUS, allowed to recover, and treated with three concentrations of G418 for 24 hours. Cells were harvested and cell lysates were subjected to SDS-PAGE and Western analysis using anti-FLAG (top) and anti-actin (lower) antibodies. The slightly higher band is WT FUS and the lower band is R495X truncated FUS.
N2A cells were maintained in DMEM (Sigma, D5796) supplemented with 10% fetal bovine serum, 100 unit/mL penicillin, and 100 μg/mL streptomycin. Transient transfection was performed using Lipofectamine 2000 (Invitrogen, Life Technologies, Grand Island, N.Y., USA). […] was used for each well of 6-well plate unless otherwise described. After 6 hours transfection, fresh medium containing aminoglycoside at indicated concentrations was added to cells. Cells were applied to following experiments after exposed to drugs at certain time points. All cells were kept in a humidified incubator at 37° C. under 5% CO2/95% air. […]
(§1) Whether G418 or gentamicin could induce read-through of two additional progranulin nonsense mutations (Q125X or Y229X) and a FUS nonsense mutation R495X that has been identified in juvenile patients of the related neurodegenerative disease ALS was also tested.

[2] = system: Q125X progranulin; assay: Read-through of progranulin Q125X nonsense mutation in transfected N2A cells (FLAG Western blot); format: cell-based, human; conditions: 24 hours
Text: (§2) The WT progranulin plasmid with a C-terminal FLAG tag (pC-Flag-PGRN-WT) was purchased from Sino Biological Inc. (Cat. HG10826-CF). Three nonsense mutations, Q125X, R229X and R493X, were generated using Q5 site-directed mutagenesis kit (New England Biolabs Inc., Cat. E0554S) to introduce a single nucleotide substitution in the WT progranulin gene (FIG. 1A). The WT progranulin with an N-terminal HA tag (HA-PGRN) was also generated by subcloning using the p3xHA vector (58) and HindIII and BamHI sites.
(§3) N2A cells were maintained in DMEM (Sigma, D5796) supplemented with 10% fetal bovine serum, 100 unit/mL penicillin, and 100 μg/mL streptomycin. […]
(§4) WT progranulin and three plasmids each with a single nonsense mutation (Q125X, Y229X, or R493X) and a C-terminal Flag tag (FIG. 1A) were constructed. A full-length protein must be generated for the FLAG to be detected, thus a truncated progranulin will not be detected by FLAG Western blotting. If read-through of the progranulin PTC occurs, then progranulin will be detectable by FLAG Western blotting.
as §1

[3] = system: Y229X progranulin; assay: Read-through of progranulin Y229X nonsense mutation in transfected N2A cells (FLAG Western blot); format: cell-based, human; conditions: 24 hours
Text: as §2, §3, §4, §1

[4] = system: R493X progranulin; assay: Read-through of progranulin R493X nonsense mutation in transfected N2A cells (FLAG Western blot); format: cell-based, human; conditions: for rescued R493X expression / read-through efficiency as % of wild-type progranulin (summary statement): N2A cell culture, conditions not restated; for read-through of R493X progranulin (FLAG-positive bands in Western blot): N2A cells transfected with R493X progranulin, two concentrations of each compound; for read-through of R493X progranulin (FLAG-positive bands in Western blot) / read-through, FLAG band intensity as percentage of WT progranulin: 24 hours; for read-through, FLAG band intensity as percentage of WT progranulin: dose response, maximal concentration 2000 μg/ml
Text: as §2
N2A cells were maintained in DMEM (Sigma, D5796) supplemented with 10% fetal bovine serum, 100 unit/mL penicillin, and 100 μg/mL streptomycin. Transient transfection was performed using Lipofectamine 2000 (Invitrogen, Life Technologies, Grand Island, N.Y., USA). […] was used for each well of 6-well plate unless otherwise described. After 6 hours transfection, fresh medium containing aminoglycoside at indicated concentrations was added to cells. Cells were applied to following experiments after exposed to drugs at certain time points. All cells were kept in a humidified incubator at 37° C. under 5% CO2/95% air.
Eleven aminoglycosides were tested in this study: G418 (Sigma-Aldrich, Cat. 4727878001), gentamicin (Sigma-Aldrich, Cat. G1397), Kanamycin (Gold Biotechnology, Cat. K-120-25), Streptomycin (Sigma-Aldrich, Cat. S9137), Amikacin (Alta Aesar, Cat. J67496), Tobramycin (Alta Aesar, Cat. J62995), Apramycin (Sigma-Aldrich, Cat. A2024), Neomycin B (Sigma-Aldrich, Cat. N6386), Netilmicin (Alta Aesar, Cat. J66302), Paromomycin (Alta Aesar, Cat. J61274), Sisomicin (Sigma-Aldrich, Cat. S7796). PTC124 was purchased from Med Chem Express (Cat. 775304-57-9).
Cells were lysed in RIPA buffer (Millipore Sigma, Cat. 20-188), centrifuged at 1000 g for 10 mins to remove debris, and then subjected to SDS electrophoresis. After electrophoresis, gels were proceeded for transferring onto nitrocellulose membranes. The membranes were then blocked with 5% milk in TBST (100 mM TRIS-HCl, pH7.5, 0.9% NaCl, 0.1% Tween-20) and incubated with indicated primary antibodies in the same solution. All immunoblotting images were acquired using a BioRad ChemiDoc MP system.
as §4
R493X, which is the most common nonsense mutation in progranulin-mediated familial FTD (8, 31), was chosen to test whether aminoglycosides could induce read-through. N2A cells were transfected with the indicated plasmid, allowed to recover for 6 hours, and fresh media containing the aminoglycoside at the indicated concentrations was added to the cells for 24 hours. Cells were lysed and analyzed by Western blotting to determine the amount of progranulin protein. […] No signal was detected in lysate from cells transfected with R493X in the absence of any compounds, serving as a negative control. The FLAG-tagged WT progranulin was included as a positive control to define the expected progranulin-FLAG amount. […] It is noted that G418 induced a stronger effect than gentamicin.
A series of G418 and gentamicin concentrations were tested to examine the dose response of the read-through effect. N2A cells were transfected with the R493X progranulin plasmid, allowed to recover for 6 hours, fresh media containing either G418 or gentamicin at 100, 500, 1000 or 2000 μg/ml was added to cells for 24 hours. Cells were then lysed and lysates analyzed by Western blotting. The read-through was dose-dependent with the highest progranulin-FLAG signal corresponding to the highest concentration of compound (FIG. 2A). […]

[5] = system: LAMB3 PTC; conditions: reported (ref. 27); cited from earlier work
[6] = system: R493X progranulin mRNA; assay: Full-length progranulin R493X mRNA level in N2A cells (qPCR); format: cell-based, human; conditions: with G418 treatment, qPCR (FIG. 5)
Description: N2A cells were exposed to G418 treatment for 24 hours with indicated concentrations after transfection. Primers specific for full length PGRN mRNA were used for qPCR. All results were normalized to full length WT progranulin in non-treated cells. N.S.: no significance. **, p<0.01; ***, p<0.001.
Total RNA was extracted with Aurum total RNA mini kit (BioRad, Cat. 732-6820), and cDNA was generated with SuperScript III first-strand synthesis system for RT-PCR (Invitrogen, Cat. 18080-051). Quantitive PCR was performed using SYBR Green (ThermoScientific, Cat. 4309155). Beta-actin primers: forward 5′-AGAGCTATGAGCTGCCTGAC-3′ (SEQ ID NO: 1); reverse 5′-GGATGTCAACGTCACACTTC-3′(SEQ ID NO: 2). Primers used for full length progranulin mRNA (including flag encoding sequence) is: forward 5′-CGTGAAGGCTTGATCCTGCGAGA-3′ (SEQ ID NO: 3), reverse 5′-CTTATCGTCATCCTTGTAATC-3′ (SEQ ID NO: 4). Annealing temperature for both beta-actin and progranulin qPCR reaction were 60° C.
In addition to inducing read-through, it has been reported that aminoglycosides can also stabilize mRNAs, which could enhance the read-through effect (35, 36). Therefore, qPCR was used to determine the mRNA levels in the absence and presence of G418.

[7] = system: R493X progranulin; assay: Read-through of progranulin R493X nonsense mutation in transfected N2A cells (FLAG Western blot); format: cell-based, human; conditions: time course, 1000 μg/ml G418, 12 hours

gentamicin
read-through of FUS R495X (full-length protein) [1]: did not induce read-through | read-through of FUS R495X (full-length protein) ([1]; listed as Gentamicin): did not induce readthrough | read-through of Q125X progranulin (full-length protein by FLAG antibody) [2]: did not induce read-through | read-through of Q125X progranulin (full-length protein by FLAG antibody) ([2]; listed as Gentamicin): no readthrough effect | read-through of Y229X progranulin (full-length protein by FLAG antibody) [3]: did not induce read-through | read-through of Y229X progranulin (full-length protein by FLAG antibody) ([3]; listed as Gentamicin): no readthrough effect | rescued R493X expression / read-through efficiency as % of wild-type progranulin (summary statement) [4]: less than 10% | read-through of R493X progranulin (FLAG-positive bands in Western blot) [4]: induced FLAG bands; also recorded: induced read-through | read-through, FLAG band intensity as percentage of WT progranulin [4]: 8.6% | read-through of the LAMB3 PTC [5]: 30-50%

NCC[C@H](O)C(=O)N[C@@H]1C[C@H](N)[C@@H](O[C@H]2O[C@H](CN)[C@@H](O)[C@H](O)[C@H]2O)[C@H](O)[C@H]1O[C@H]1O[C@H](CO)[C@@H](O)[C@H](N)[C@H]1O [amikacin]
read-through of R493X progranulin (FLAG-positive bands in Western blot) [4]: did not have any detectable read-through effect

CN[C@@H]1[C@@H](O)[C@@H](O[C@@H]2[C@@H](O)[C@H](O[C@H]3O[C@H]([C@@H](C)O)[C@@H](O)[C@H](O)[C@H]3N)[C@@H](N)C[C@H]2N)OC[C@]1(C)O [G418]
mRNA level of R493X as % of WT progranulin [6]: ~60% | read-through as % of the WT control [7]: ≈ 5% | rescued R493X expression / read-through efficiency as % of wild-type progranulin (summary statement) [4]: ~50% | read-through, FLAG band intensity as percentage of WT progranulin [4]: 33.8% and > 30%

CN[C@@H]1[C@@H](O[C@H]2O[C@H](CO)[C@@H](N)[C@H](O)[C@H]2O)OC2C[C@@H](N)[C@@H](O[C@H]3[C@H](O)[C@@H](O)[C@H](N)C[C@@H]3N)OC2[C@@H]1O (some centres unmarked) [apramycin]
read-through of R493X progranulin (FLAG-positive bands in Western blot) [4]: did not have any detectable read-through effect

CCN[C@@H]1C[C@H](N)[C@@H](O[C@H]2OC(CN)=CC[C@H]2N)[C@H](O)[C@H]1O[C@H]1OC[C@](C)(O)[C@H](NC)[C@H]1O [netilmicin]
read-through of R493X progranulin (FLAG-positive bands in Western blot) [4]: did not have any detectable read-through effect

CN[C@@H]1[C@@H](O)[C@@H](O[C@@H]2[C@@H](O)[C@H](O[C@H]3OC(CN)=CC[C@H]3N)[C@@H](N)C[C@H]2N)OC[C@]1(C)O [sisomicin]
read-through of R493X progranulin (FLAG-positive bands in Western blot) [4]: did not have any detectable read-through effect

NC[C@H]1O[C@H](O[C@H]2[C@H](O)[C@@H](O[C@H]3O[C@H](CO)[C@@H](O)[C@H](N)[C@H]3O)[C@H](N)C[C@@H]2N)[C@H](N)C[C@@H]1O [tobramycin]
read-through of R493X progranulin (FLAG-positive bands in Western blot) [4]: did not have any detectable read-through effect

NC[C@@H]1O[C@H](O[C@H]2[C@@H](O)[C@H](O[C@@H]3[C@@H](O)[C@H](N)C[C@H](N)[C@H]3O[C@H]3O[C@H](CO)[C@@H](O)[C@H](O)[C@H]3N)O[C@@H]2CO)[C@H](N)[C@@H](O)[C@@H]1O [paromomycin]
read-through of R493X progranulin (FLAG-positive bands in Western blot) [4]: did not have any detectable read-through effect

NC[C@@H]1O[C@H](O[C@H]2[C@@H](O)[C@H](O[C@@H]3[C@@H](O)[C@H](N)C[C@H](N)[C@H]3O[C@H]3O[C@H](CN)[C@@H](O)[C@H](O)[C@H]3N)O[C@@H]2CO)[C@H](N)[C@@H](O)[C@@H]1O [neomycin B]
read-through of R493X progranulin (FLAG-positive bands in Western blot) [4]: did not have any detectable read-through effect

O=C(O)c1cccc(-c2noc(-c3ccccc3F)n2)c1 [PTC124]
read-through of R493X progranulin (FLAG-positive bands in Western blot) [4]: did not have any detectable read-through effect

[H]/N=C(/N)N[C@H]1[C@H](O)[C@@H](O)[C@H](O[C@@H]2O[C@@H](C)[C@](O)(C=O)[C@H]2O[C@@H]2O[C@@H](CO)[C@H](O)[C@@H](O)[C@@H]2NC)[C@@H](N/C(N)=N\[H])[C@@H]1O [streptomycin]
read-through of R493X progranulin (FLAG-positive bands in Western blot) [4]: did not have any detectable read-through effect

Source: US11560559B2, “Inducing production of full-length progranulin (GRN) from nucleotides including mutations containing a premature stop codon (PTC)” (University of Kentucky Research Foundation, priority 2018, dated 2023)
